Assay type in all cases: ADME, organism-based
The nature of data set [1]: Cmax in nu/nu mouse at 5 mg/kg in presence of STA-4783. More on the design: dose 5 mg/kg. As to conditions: in vivo.
The nature of data set [2]: AUC in rat at 5 mg/kg in presence of STA-4783. On the set-up: dose 5 mg/kg. The following applies: plasma.
Data set [3] is described as follows: AUC in nu/nu mouse at 5 mg/kg in presence of STA-4783. As to conditions: plasma. On the set-up: dose 5 mg/kg.
The nature of data set [4]: Half life in nu/nu mouse at 5 mg/kg in presence of STA-4783. More on the design: dose 5 mg/kg. The following applies: in vivo.
Data set [5] in a line: Cmax in rat at 5 mg/kg in presence of STA-4783. More on the design: dose 5 mg/kg. The following applies: in vivo.
Data set [6] in a line: Cmax in nu/nu mouse at 25 mg/kg, iv. The following applies: in vivo. More on the design: dose 25 mg/kg, route intravenous.
A short description of data set [7]: AUC in nu/nu mouse at 25 mg/kg, iv. More on the design: dose 25 mg/kg, route intravenous. The following applies: plasma.
Data set [8] can be described thus: Half life in rat at 5 mg/kg. More on the design: dose 5 mg/kg. As to conditions: in vivo.
Data set [9] is described as follows: Volume of distribution at steady state in Sprague-Dawley rat at 25 mg/kg, iv. On the set-up: dose 25 mg/kg, route intravenous. As to conditions: in vivo, read-out: Vdss.
The nature of data set [10]: Clearance in Sprague-Dawley rat at 25 mg/kg, iv. More on the design: dose 25 mg/kg, route intravenous. As to conditions: in vivo.
Data set [11] is described as follows: Cmax in rat at 25 mg/kg in presence of taxol. More on the design: dose 25 mg/kg. As to conditions: in vivo.
The nature of data set [12]: Apparent terminal half life in nu/nu mouse at 25 mg/kg, iv. More on the design: dose 25 mg/kg, route intravenous. As to conditions: in vivo, read-out: betat1/2(app) (converted).
The nature of data set [13]: Half life in rat at 25 mg/kg in presence of taxol. On the set-up: dose 25 mg/kg. As to conditions: in vivo.
Data set [14] is described as follows: AUC in rat at 5 mg/kg. The following applies: plasma. On the set-up: dose 5 mg/kg.
Data set [15] is described as follows: Cmax in rat at 5 mg/kg. On the set-up: dose 5 mg/kg. As to conditions: in vivo.
Data set [16] is described as follows: Volume of distribution at steady state in nu/nu mouse at 25 mg/kg, iv. More on the design: dose 25 mg/kg, route intravenous. The following applies: in vivo, read-out: Vdss.
Data set [17] in a line: Apparent terminal half life in Sprague-Dawley rat at 25 mg/kg, iv. On the set-up: dose 25 mg/kg, route intravenous. As to conditions: in vivo, read-out: betat1/2(app) (converted).
The nature of data set [18]: AUC in rat at 25 mg/kg in presence of taxol. On the set-up: dose 25 mg/kg. As to conditions: plasma.
A short description of data set [19]: Half life in nu/nu mouse at 25 mg/kg in presence of taxol. More on the design: dose 25 mg/kg. As to conditions: in vivo.
Data set [20] in a line: AUC in nu/nu mouse at 25 mg/kg in presence of taxol. More on the design: dose 25 mg/kg. The following applies: plasma.
Data set [21] can be described thus: Clearance in nu/nu mouse at 25 mg/kg, iv. On the set-up: dose 25 mg/kg, route intravenous. As to conditions: in vivo.
A short description of data set [22]: Cmax in nu/nu mouse at 25 mg/kg in presence of taxol. More on the design: dose 25 mg/kg. The following applies: in vivo.
The nature of data set [23]: AUC in Sprague-Dawley rat at 25 mg/kg, iv. As to conditions: plasma. More on the design: dose 25 mg/kg, route intravenous.
Data set [24] can be described thus: Cmax in Sprague-Dawley rat at 25 mg/kg, iv. On the set-up: dose 25 mg/kg, route intravenous. As to conditions: in vivo.

The source of these data is ChEMBL document CHEMBL2424624, “Syntheses and antitumor activities of N'1,N'3-dialkyl-N'1,N'3-di-(alkylcarbonothioyl) malonohydrazide: the discovery of elesclomol” (Bioorg Med Chem Lett, 2013).

On to `CC(=O)O[C@H]1C(=O)[C@@]2(C)[C@H]([C@H](OC(=O)c3ccccc3)[C@]3(O)C[C@H](OC(=O)[C@H](O)[C@@H](NC(=O)c4ccccc4)c4ccccc4)C(C)=C1C3(C)C)[C@]1(OC(C)=O)CO[C@@H]1C[C@@H]2O` [PACLITAXEL], for which the Cmax in [1] came out at 10.6 µM; in data set [5] it was 20.4 µM. Moreover, the AUC in [2] came to 11.9 µM·h; in data set [3], 2.95 µM·h. Also, in [4], the half-life is 2.26 h.
In the case of `CN(NC(=O)CC(=O)NN(C)C(=S)c1ccccc1)C(=S)c1ccccc1` [ELESCLOMOL], the maximum concentration (Cmax) in data set [6] turned out to be 85.2 µM; in [11], 63.3 µM; in data set [15] it was 21.7 µM; in data set [22], 37.8 µM; in data set [24], 56.3 µM. In addition, the AUC in data set [7] came out at 35.9 µM·h; in [14], 10.3 µM·h; in [18] it was 36.8 µM·h; in [20], 11.9 µM·h; in data set [23], 32.7 µM·h. Further, the half-life in data set [8] was 3.1 h; in data set [12], 1.9 h; in [13], 1.7 h; in data set [17] it was 1.94 h; in data set [19], 1.2 h. For the same compound, the Vd in data set [9] stood at 0.1 L/kg; in data set [16], 0.51 L/kg. The clearance is 13.2 mL/min/kg in [10] and 29 mL/min/kg in [21].
